Data from patent US7744867B2, “PTPase inhibitors and method of using same” (The Cleveland Clinic Foundation, priority 2001, dated 2010).

How the values were obtained:
intracellular Flag-PRL-2 = target: T1, intracellular Flag-PRL-2 (Homo sapiens, UniProt Q12974); assay: PTPase activity of anti-Flag immunocomplexes from NIH3T3 transfectants; type: cell-based
T1 construct: expressed in transfected cells; host or cells: NIH3T3
T1 sequence (Q12974 1-167): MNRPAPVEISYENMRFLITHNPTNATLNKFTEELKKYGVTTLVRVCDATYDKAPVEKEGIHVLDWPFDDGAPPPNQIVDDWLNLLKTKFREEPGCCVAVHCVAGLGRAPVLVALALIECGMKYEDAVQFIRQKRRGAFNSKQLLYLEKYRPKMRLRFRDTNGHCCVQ
Experimental: (§1) An expression construct of Flag-tagged PRL-1 or control vector was transfected into NIH3T3 cells which were then treated without or with sodium stibogluconate and used for immunoprecipitation assays with a monoclonal anti-Flag antibody. The immunocomplexes were analyzed by SDS-PAGE/Western blotting and PTPase assays. A Flag-tagged protein with a molecular weight approximately 22 kDa as expected for Flag-PRL-1 was detected in the immunocomplexes from untreated or sodium stibogluconate -treated Flag-PRL-1 transfectants but not in those from the control cells (FIG. 6A).
Flag-PRL-2 transfectants were briefly treated with sodium stibogluconate for 5 minutes, washed to remove cell-free drug and then incubated for various times prior to termination by cell lysis. Anti-Flag immunocomplexes from the cells were analyzed by SDS-PAGE/Western blotting and PTPase assays. The amounts of Flag-PRL-2 proteins in the immunocomplexes were at similar levels as quantified by probing with an anti-Flag antibody. […] PTPase activity of the immunocomplexes from cells incubated for 24 hours was 78% of the untreated cells.
Glucatime-induced inactivation of intracellular PRL-2 lasts more than 24 hours. NIH3T3 stable transfectant of Flag-tagged PRL-2 was treated with glucatime for 5 minutes, washed to remove cell free drug and then incubated for various times prior to termination by lysing the cells in lysis buffer. Flag-tagged PRL-2 was immunoprecipitated from the cell lysates using a monoclonal anti-Flag antibody. The amounts of Flag-tagged PRL-2 in the immunocomplexes were quantified by SDS-PAGE/Western blotting with the anti-Flag antibody (A). Activities of the immunocomplexes in dephosphorylating a synthetic phosphotyrosine peptide were determined by in vitro PTPase assays (B).

intracellular Flag-PRL-3 = target: T2, intracellular Flag-PRL-3 (Homo sapiens, UniProt O75365); assay: as above; type: cell-based; conditions: treated 5 min
T2 construct: expressed in transfected cells; host or cells: NIH3T3
T2 sequence (O75365 whole entry): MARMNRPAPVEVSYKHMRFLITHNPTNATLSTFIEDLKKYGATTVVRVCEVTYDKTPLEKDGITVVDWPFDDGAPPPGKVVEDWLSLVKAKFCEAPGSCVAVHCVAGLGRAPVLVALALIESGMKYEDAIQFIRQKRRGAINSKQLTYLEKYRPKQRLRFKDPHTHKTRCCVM
Experimental: as §1
(§2) Glucatime inactivates intracellular PRL phosphatases. NIH3T3 stable transfectants of Flag-tagged PRL-1 (A), PRL-2 (B) and PRL-3 (C) were untreated or treated with glucatime for 5 minutes and then washed to remove cell free drug. The Flag-tagged PRLs were immunoprecipitated from the cells using a monoclonal anti-Flag antibody. The amounts of Flag-tagged PRLs in the immunocomplexes were quantified by SDS-PAGE/Western blotting with the anti-Flag antibody (the top panel). Activities of the immunocomplexes in dephosphorylating a synthetic phosphotyrosine peptide were determined by in vitro PTPase assays (the low panel).

intracellular Flag-PRL-1 = target: T3, intracellular Flag-PRL-1 (Homo sapiens, UniProt Q93096); assay: as above; type: cell-based; conditions: treated 5 min
T3 construct: expressed in transfected cells; host or cells: NIH3T3
T3 sequence (Q93096 whole entry): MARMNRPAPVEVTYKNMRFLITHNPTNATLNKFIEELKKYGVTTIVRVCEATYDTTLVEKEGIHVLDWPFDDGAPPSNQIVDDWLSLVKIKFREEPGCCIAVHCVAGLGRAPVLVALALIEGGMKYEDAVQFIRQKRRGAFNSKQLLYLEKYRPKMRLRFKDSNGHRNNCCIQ
Experimental: as §1, §2

TF-1 cells = assay: Proliferation of TF-1 cells with GM-CSF and IFNα (MTT); type: cell-based, human; conditions: at 50 μg/ml; GM-CSF 5-40 ng/ml
Experimental: FIG. 7 illustrates that sodium stibogluconate augments the opposite effects of GM-CSF and IFNα on TF-1 cell growth: A. Proliferation of TF-1 cells cultured in the presence of various amounts of GM-CSF and with or without sodium stibogluconate for three days was measured by MTT assays; B. Proliferation of TF-1 cells cultured in the presence of GM-CSF (50 ng/ml) and various amounts of IFNα with or without sodium stibogluconate (50 μg/ml) for three days was measured by MTT assays; C. The results in B shown as percentage inhibition of cell growth; D. Proliferation of TF-1 cells in the presence of GM-CSF (20 ng/ml) and various amounts of sodium stibogluconate for 6 days was measured by MTT assays; E. Proliferation of TF-1 cells in the presence of GM-CSF (20 ng/ml)/IFNα (1,000 u/ml) and various amounts of sodium stibogluconate for 6 days was measured by MTT assays.
The murine hematopoietic cell line Baf3 was maintained in RPMI 1640 medium supplemented with 10% fetal calf serum (FCS) and murine IL-3 (20 units/ml) as described previously. Human myeloid cell line TF-1 was maintained in RPMI 1640 supplemented with 10% FCS and 40 ng/ml of recombinant human GM-CSF as described previously. […] The cell numbers in proliferation assays were determined by an MTT assay or by microscopic cell counting as indicated.

[1] = system: RC45 cells (Renal cell carcinoma); assay: Growth inhibition of human tumor cell lines; type: cell-based; conditions: SS 12.5 μg/ml, IFNα 1,000 u/ml, alone or combined
[2] = system: MDA435 cells (Breast cancer); assay: Growth inhibition of human tumor cell lines; type: cell-based; conditions: SS 12.5 μg/ml, IFNα 1,000 u/ml, alone or combined
[3] = system: DR cells (Burkitt's Lymphoma); assay: Growth inhibition of human tumor cell lines (MTT); type: cell-based
Experimental: (§3) FIG. 8 illustrates growth inhibition of human cell lines of hematopoietic malignancies by sodium stibogluconate and/or IFNα: A and B. Growth of DS and DR cells cultured in the absence or presence of various amounts of sodium stibogluconate and/or IFNα (1,000 u/ml) for 3 days was measured by MTT assays; C. Percentage of growth inhibition of DR cells calculated from data in B; D. Percentage of growth inhibition of DR cells by IFNα (1,000 u/ml) and various amounts of sodium stibogluconate in day 6 cultures measured by MTT assays; E. Percentage of growth inhibition of U266 cells by IFNα (1,000 u/ml) and various amounts of sodium stibogluconate in day 6 cultures as measured by MTT assays.

[4] = system: U266 cells (Multiple myeloma); assay: Growth inhibition of human tumor cell lines (MTT); type: cell-based; conditions: SS 12.5 μg/ml, IFNα 1,000 u/ml, alone or combined
Experimental: as §3

[5] = system: WiT49-N1 cells (Wilms tumor); assay: Growth inhibition of human tumor cell lines (MTT); type: cell-based; conditions: SS 12.5 μg/ml, IFNα 1,000 u/ml, alone or combined
Description: FIG. 9 illustrates growth inhibition of human cell lines of non-hematopoietic malignancies by sodium stibogluconate and/or IFNα. Percentage of growth inhibition of WM9 (A), DU145 (B), MDA231 (C) and WiT49-N1 (D) in the absence or presence of various amounts of sodium stibogluconate and/or IFNα (1,000 u/ml) in day 6 cultures as measured by MTT assays.

Compound | PTPase activity of Flag-PRL-2 immunocomplexes from treated transfectants (intracellular Flag-PRL-2; treated 5 min) | duration of intracellular PRL-2 inactivation (intracellular Flag-PRL-2; treated 5 minutes, washed to remove cell free drug) | PTPase activity of Flag-PRL-3 immunocomplexes from treated transfectants (intracellular Flag-PRL-3) | PTPase activity of Flag-PRL-1 immunocomplexes from treated transfectants (intracellular Flag-PRL-1) | GM-CSF-induced proliferation of TF-1 cells (TF-1 cells) | % of growth inhibition by day 6 (±s.d.) [1] | % of growth inhibition by day 6 (±s.d.) [2] | % of growth inhibition by day 6 (±s.d.) ([3]; DR, SS 12.5 μg/ml, IFNα 1,000 u/ml, alone or combined) [%] | growth inhibition of DR cells, day 3 ([3]; IFNα 1,000 u/ml alone or with various amounts of sodium stibogluconate, day 3) [%] | % of growth inhibition by day 6 (±s.d.) [4] | % of growth inhibition by day 6 (±s.d.) [5]
O.O.O.O.O.O.O.O.O.O=C([O-])[C@@H]1[O][Sb]2([O-])([O][Sb]34([OH])[O][C@H]([C@H](O)CO)[C@H]([O]3)[C@H](C(=O)[O-])[O]4)[O][C@H]([C@H](O)CO)[C@@H]1[O]2.[Na+].[Na+].[Na+] [sodium stibogluconate] | lack of PTPase activity | at least 24 hours | lack of PTPase activity | little PTPase activities | augmented | – | – | – | – | – | –
IFNα | – | – | – | – | – | 70 (15) % | 29 (15) % | 39 | 19 | 78 (10) % | 22 (11) %
